biological target: T1, human β3 adrenergic receptor (Homo sapiens, UniProt P13945); assay: Functional assay: cAMP production (LANCE TR-FRET) in CHO cells stably transfected with cloned β3 adrenergic receptor; type: cell-based; details: Table 4; human β3 functional activity; read-out: Human β Binding
T1 construct: expressed in transfected cells; host or cells: Chinese hamster ovary (CHO) cells, stably transfected
In short: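 Agonist-stimulated cAMP in CHO cells stably expressing human β3 receptor, 6,000 cells per well in HBSS/HEPES/0.1% BSA with 0.6 mM IBMX, 30 min at room temperature. LANCE TR-FRET readout converted to cAMP via standard curve; maximal stimulation defined with isoproterenol.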

T1 sequence (P13945 whole entry): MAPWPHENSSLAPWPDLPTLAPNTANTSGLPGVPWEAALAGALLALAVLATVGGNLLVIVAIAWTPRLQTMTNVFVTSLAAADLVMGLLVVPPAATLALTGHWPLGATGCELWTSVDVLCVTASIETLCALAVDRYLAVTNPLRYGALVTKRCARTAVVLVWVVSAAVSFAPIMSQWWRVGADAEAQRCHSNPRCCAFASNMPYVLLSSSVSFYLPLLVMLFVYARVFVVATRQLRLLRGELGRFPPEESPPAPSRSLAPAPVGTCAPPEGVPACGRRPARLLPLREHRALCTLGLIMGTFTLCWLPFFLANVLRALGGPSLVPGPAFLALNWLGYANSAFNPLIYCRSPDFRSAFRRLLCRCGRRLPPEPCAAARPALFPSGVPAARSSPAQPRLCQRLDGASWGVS

| EC50 | Compound |
| --- | --- |
| 11 to 100 nM | CN1CCCN(CC(=O)Nc2ccc(C[C@@H]3CC[C@H]([C@H](O)c4ccccc4)N3)cc2)C1=O [Example 99] |
| 11 to 100 nM | O=C(Cc1n[nH]c(=O)[nH]1)Nc1ccc(C[C@@H]2CC[C@H]([C@H](O)c3ccccc3)N2)cc1 [Example 68] |
| 101 to 1000 nM | O=C(Nc1ccc(C[C@@H]2CC[C@H]([C@H](O)c3ccccc3)N2)cc1)c1ccccc1COc1ccccc1 [Example 31] |
| 1 to 10 nM | Cc1nn(CC(=O)Nc2ccc(C[C@@H]3CC[C@H]([C@H](O)c4ccccc4)N3)cc2)c(=O)c2ccccc12 [Example 15] |
| 11 to 100 nM | O=C(Cc1ccccn1)Nc1ccc(C[C@@H]2CC[C@H]([C@H](O)c3ccccc3)N2)cc1 [Example 43] |
| 1 to 10 nM | O=C(CN1CCCC1=O)Nc1ccc(C[C@@H]2CC[C@H]([C@H](O)c3ccccc3)N2)cc1 [Example 87] |
| 1 to 10 nM | O=C(Nc1ccc(C[C@@H]2CC[C@H]([C@H](O)c3ccccc3)N2)cc1)C1CCCN1c1nccs1 (stereo partly drawn) [Example 41] |
| 1 to 10 nM | O=C(CCc1nc(-c2ccccc2)no1)Nc1ccc(C[C@@H]2CC[C@H]([C@H](O)c3ccccc3)N2)cc1 [Example 47] |
| 11 to 100 nM | Cc1csc(CC(=O)Nc2ccc(C[C@@H]3CC[C@H]([C@H](O)c4ccccc4)N3)cc2)n1 [Example 8] |
| 1 to 10 nM | O=C(Cn1[nH]c(=O)c2ccccc2c1=O)Nc1ccc(C[C@@H]2CC[C@H]([C@H](O)c3ccccc3)N2)cc1 [Example 53] |
| 11 to 100 nM | O=C(Nc1ccc(C[C@@H]2CC[C@H]([C@H](O)c3ccccc3)N2)cc1)c1ccccc1-c1ncc[nH]1 [Example 12] |
| 11 to 100 nM | O=C(Nc1ccc(C[C@@H]2CC[C@H]([C@H](O)c3ccccc3)N2)cc1)c1ccccc1CCn1cccc1 [Example 32] |
| 1 to 10 nM | O=C(Cn1ncc2ccccc2c1=O)Nc1ccc(C[C@@H]2CC[C@H]([C@H](O)c3ccccc3)N2)cc1 [Example 49] |
| 1 to 10 nM | O=C(Nc1ccc(C[C@@H]2CC[C@H]([C@H](O)c3ccccc3)N2)cc1)C1CCCN1c1cccc(Br)c1 (stereo partly drawn) [Example 38] |
| 11 to 100 nM | O=C(Cn1ncnn1)Nc1ccc(C[C@@H]2CC[C@H]([C@H](O)c3ccccc3)N2)cc1 [Example 78] |

same assay, conditions: Table 5; read-out: Human β3 Functional

| EC50 | Compound |
| --- | --- |
| < 1 nM | O=C(Nc1ccc(C[C@@H]2CC[C@H]([C@H](O)c3ccccc3)N2)cc1)C1CCc2sc(Br)nc21 (single isomer, unassigned) [Example 145] |
| 1 to 10 nM | CC(C(=O)Nc1ccc(C[C@@H]2CC[C@H]([C@H](O)c3ccccc3)N2)cc1)c1cnccn1 (single isomer, unassigned) [Example 207] |
| 11 to 100 nM | CC(C(=O)Nc1ccc(C[C@@H]2CC[C@H]([C@H](O)c3ccccc3)N2)cc1)n1cc(C(N)=O)nn1 (single isomer, unassigned) [Example 193] |
| 1 to 10 nM | CCC(C(=O)Nc1ccc(C[C@@H]2CC[C@H]([C@H](O)c3ccccc3)N2)cc1)n1nccn1 (single isomer, unassigned) [Example 217] |
| 1 to 10 nM | CC(C(=O)Nc1ccc(CC2CCC(C(O)c3ccccc3)N2)cc1)c1ccn(C)n1 (single isomer, unassigned) [Example 187] |
| 101 to 1000 nM | O=C(Nc1ccc(C[C@@H]2CC[C@H]([C@H](O)c3ccccc3)N2)cc1)C1CCc2ccc(=O)[nH]c21 (single isomer, unassigned) [Example 134] |
| < 1 nM | CC(C(=O)Nc1ccc(C[C@@H]2CC[C@H]([C@H](O)c3ccccc3)N2)cc1)n1cnc2ccccc2c1=O (single isomer, unassigned) [Example 167] |
| 1 to 10 nM | CCC(C(=O)Nc1ccc(C[C@@H]2CC[C@H]([C@H](O)c3ccccc3)N2)cc1)n1cccn1 (single isomer, unassigned) [Example 219] |
| 1 to 10 nM | Cc1nnc2n1CCC2C(=O)Nc1ccc(C[C@@H]2CC[C@H]([C@H](O)c3ccccc3)N2)cc1 (single isomer, unassigned) [Example 124] |
| 1 to 10 nM | CC(C(=O)Nc1ccc(C[C@@H]2CC[C@H]([C@H](O)c3ccccc3)N2)cc1)n1nccn1 (single isomer, unassigned) [Example 179] |
| 101 to 1000 nM | O=C(Nc1ccc(C[C@@H]2CC[C@H]([C@H](O)c3ccccc3)N2)cc1)C1CCCc2ccccc21 (single isomer, unassigned) [Example 113] |
| 11 to 100 nM | CC(C(=O)Nc1ccc(C[C@@H]2CC[C@H]([C@H](O)c3ccccc3)N2)cc1)n1ccnn1 (single isomer, unassigned) [Example 182] |
| < 1 nM | C[C@H](C(=O)Nc1ccc(C[C@@H]2CC[C@H]([C@H](O)c3ccccc3)N2)cc1)c1csc(N)n1 [Example 105] |
| 1000 to 3000 nM | O=C(Nc1ccc(C[C@@H]2CC[C@H]([C@H](O)c3ccccc3)N2)cc1)C1CCCn2ccnc21 (single isomer, unassigned) [Example 154] |
| < 1 nM | CC(C(=O)Nc1ccc(C[C@@H]2CC[C@H]([C@H](O)c3ccccc3)N2)cc1)c1nccs1 (single isomer, unassigned) [Example 200] |
| 11 to 100 nM | Cc1n[nH]c2c1CCC2C(=O)Nc1ccc(C[C@@H]2CC[C@H]([C@H](O)c3ccccc3)N2)cc1 (single isomer, unassigned) [Example 138] |
| 1000 to 3000 nM | O=C(Nc1ccc(C[C@@H]2CC[C@H]([C@H](O)c3ccccc3)N2)cc1)C1CCc2ccccc2C1 (single isomer, unassigned) [Example 109] |
| 1 to 10 nM | COC(=O)c1cnnn1C(C)C(=O)Nc1ccc(C[C@@H]2CC[C@H]([C@H](O)c3ccccc3)N2)cc1 (single isomer, unassigned) [Example 195] |
| 11 to 100 nM | O=C(O)c1nc2c(s1)CCC2C(=O)Nc1ccc(C[C@@H]2CC[C@H]([C@H](O)c3ccccc3)N2)cc1 (single isomer, unassigned) [Example 143] |
| 11 to 100 nM | O=C(Nc1ccc(C[C@@H]2CC[C@H]([C@H](O)c3ccccc3)N2)cc1)C1CCCn2nnnc21 (single isomer, unassigned) [Example 153] |

same assay, conditions: Table 6; read-out: Human β3 Functional

| EC50 | Compound |
| --- | --- |
| 101 to 1000 nM | Cc1nc2c(s1)CCCC2C(=O)Nc1ccc(CC2CCC(C(O)c3ccccc3)N2)cc1 (single isomer, unassigned) [Example 231] |

same assay, conditions: Table 7; β3AR-cAMP; read-out: Human β3 Functional

| EC50 | Compound |
| --- | --- |
| 1000 to 3000 nM | Cc1nn(C)c(Cl)c1S(=O)(=O)Nc1ccc(C[C@@H]2CC[C@H]([C@H](O)c3ccccc3)N2)cc1 [Example 247] |
| 101 to 1000 nM | Cn1cnc(S(=O)(=O)Nc2ccc(C[C@@H]3CC[C@H]([C@H](O)c4ccccc4)N3)cc2)c1 [Example 246] |

same assay, conditions: Table 8; read-out: Human β3 Functional

| EC50 | Compound |
| --- | --- |
| 101 to 1000 nM | O=C(NCc1ccccc1F)Nc1ccc(C[C@@H]2CC[C@H]([C@H](O)c3ccccc3)N2)cc1 [Example 254] |
| 11 to 100 nM | CN(Cc1cscn1)C(=O)Nc1ccc(C[C@@H]2CC[C@H]([C@H](O)c3ccccc3)N2)cc1 [Example 253] |

same assay, conditions: Table 9; read-out: Human β^3 Functional

| EC50 | Compound |
| --- | --- |
| 101 to 1000 nM | CC(C(=O)Nc1ccc(C[C@@H]2CC[C@H]([C@H](O)c3ccccc3)N2)cc1)N(C)C(=O)c1ccccn1 (stereo partly drawn) [Example 265] |
| 11 to 100 nM | CC(NS(=O)(=O)Cc1ccccc1)C(=O)Nc1ccc(C[C@@H]2CC[C@H]([C@H](O)c3ccccc3)N2)cc1 (stereo partly drawn) [Example 273] |
| < 1 nM | CC(NC(=O)c1ncccn1)C(=O)Nc1ccc(C[C@@H]2CC[C@H]([C@H](O)c3ccccc3)N2)cc1 (stereo partly drawn) [Example 268] |
| < 1 nM | CC(NC(=O)c1c(F)cccc1F)C(=O)Nc1ccc(C[C@@H]2CC[C@H]([C@H](O)c3ccccc3)N2)cc1 (stereo partly drawn) [Example 267] |
| < 1 nM | CC(NC(=O)c1cc[nH]n1)C(=O)Nc1ccc(C[C@@H]2CC[C@H]([C@H](O)c3ccccc3)N2)cc1 (stereo partly drawn) [Example 271] |

same assay, conditions: Table 10; β3AR-cAMP; read-out: Human β3 Functional

| EC50 | Compound |
| --- | --- |
| 11 to 100 nM | Nc1nc2c(s1)CCC2C(=O)Nc1ccc(CC2CCC(C(O)c3cccc(F)c3)N2)cc1 (single isomer, unassigned) [Example 276] |
| 1 to 10 nM | Cc1nnc(CC(=O)Nc2ccc(C[C@@H]3CC[C@H]([C@H](O)c4cccc(F)c4)N3)cc2)[nH]1 [Example 280] |
| < 1 nM | Nc1nc2c(s1)CCC2C(=O)Nc1ccc(CC2CCC(C(O)c3cccc(F)c3)N2)cc1 (single isomer, unassigned) [Example 277] |

same assay, conditions: Table 11; read-out: Human β3 Functional

| EC50 | Compound |
| --- | --- |
| < 1 nM | O=C(Nc1ccc(C[C@@H]2CC[C@H]([C@H](O)c3ccc(F)cc3)N2)cc1)[C@@H]1CCc2scnc21 [Example 284] |
| 11 to 100 nM | CC(C(=O)Nc1ccc(CC2CCC(C(O)c3ccc(F)cc3)N2)cc1)c1cscn1 (single isomer, unassigned) [Example 285] |

same assay, conditions: Table 12; read-out: Human β3 Functional

| EC50 | Compound |
| --- | --- |
| < 1 nM | Nc1nc2c(s1)CCC2C(=O)Nc1ccc(CC2CCC(C(O)c3ccc(F)c(F)c3)N2)cc1 (single isomer, unassigned) [Example 289] |

same assay, conditions: given as a range; cAMP, CHO cells; read-out: human β3 functional activity

| EC50 | Compound |
| --- | --- |
| < 1 nM | Nc1nc2c(s1)CCC2C(=O)Nc1ccc(C[C@@H]2CC[C@H]([C@H](O)c3ccccc3)N2)cc1 (single isomer, unassigned) [Example 4] |
| 11 to 100 nM | COc1cccc(NC(=O)Nc2ccc(C[C@@H]3CC[C@H]([C@H](O)c4ccccc4)N3)cc2)c1 [Example 251, N-[4-({(2S,5R)-5-[(R)-hydroxy(phenyl)methyl]pyrrolidin-2-yl}methyl)phenyl]-N′-(3-methoxyphenyl)urea] |

same assay, conditions: human β3 functional activity, shown as ranges; Table 13; read-out: Human β3 Functional

| EC50 | Compound |
| --- | --- |
| 11 to 100 nM | O=C(Nc1ccc(C[C@@H]2CC[C@H]([C@H](O)c3cccc(Cl)c3)N2)cc1)[C@H]1CCc2scnc21 [Example 296] |
| < 1 nM | O=C(Nc1ccc(CC2CCC(C(O)c3cccc(Cl)c3)N2)cc1)C1CCc2sc(Br)nc21 (single isomer, unassigned) [Example 298] |
| < 1 nM | Nc1nc2c(s1)CCC2C(=O)Nc1ccc(CC2CCC(C(O)c3cccc(Cl)c3)N2)cc1 (single isomer, unassigned) [Example 295] |

same assay, conditions: human β3 functional activity, shown as ranges; Table 14; read-out: Human β3 Functional

| EC50 | Compound |
| --- | --- |
| 1 to 10 nM | Nc1nc2c(s1)CCC2C(=O)Nc1ccc(CC2CCC(C(O)c3cccc(Cl)c3)N2)cc1 (single isomer, unassigned) [Example 311] |

Source: patent US8399480B2, “Hydroxymethyl pyrrolidines as beta 3 adrenergic receptor agonists” (Merck Sharp & Dohme Corp., priority 2008, dated 2013)
